Experiment [1] concerns the target T1, GTP-loaded KRAS4b (amino acids 1-169) G12C/C118S protein (Homo sapiens, UniProt P01116, C118S/G12C).
T1 construct: KRAS4b (amino acids 1-169) G12C/C118S protein; made in house
Kind of experiment: Covalent cysteine 12 modification by MALDI-TOF MS, GTP-loaded KRAS G12C. In kind it is binding. As to conditions: 15 minutes reaction time point. Summed up:
(§1)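 Protein (1 μM) was incubated with compound at a 1:2.5 protein:compound ratio in 20 mM HEPES, 150 mM NaCl, 1 mM MgCl2, pH 7.3, at room temperature in the dark. After 15 min, samples were mixed into sinapinic acid matrix and analysed by linear-mode MALDI-TOF. Modification is adduct peak height over summed unmodified plus adduct heights.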

Experiment [2] deals with T2, Avi-KRAS G12C (1-169) GppNHp/RAF1 RBD-3×FLAG (52-151) (Homo sapiens, UniProt P01116, G12C).
T2 construct: Avi-KRAS G12C (1-169) GppNHp; Avi (N)
Nature of the experiment: Raf1 RBD-KRAS G12C-GppNHp disruption assay (protein:protein interaction HTRF). In kind it is biochemical. The method in brief:
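HTRF measuring RAF1 RBD binding to GppNHp-loaded KRAS G12C (50 nM) in Tris pH 7.5, 100 mM NaCl, 5 mM MgCl2, 10% DMSO. Compound, KRAS, RBD and detection reagents each added sequentially with 1 h room-temperature incubations; 10-point titration; excitation 320 nm, emission 615 nm; activity as % of DMSO; IC50 derived.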

Experiment [3] concerns the target T3, GDP-loaded KRAS4b (amino acids 1-169) G12C/C118S protein (Homo sapiens, UniProt P01116, C118S/G12C).
T3 construct: KRAS4b (amino acids 1-169) G12C/C118S protein; made in house
Kind of experiment: Covalent cysteine 12 modification by MALDI-TOF MS, GDP-loaded KRAS G12C. In kind it is binding. As to conditions: 15 minutes reaction time point. The method in brief:
as §1

Structures are written as SMILES. Some results are limits rather than exact numbers.

With `C=CC(=O)N1CC[C@@H](N(C)c2nc(OC[C@@H]3CC4(CC4)CN3CC)nc3c(F)c(-c4ccc(F)c5sc(N)c(C#N)c45)c(Cl)cc23)[C@@H]1C` [Compound 92], the “GTP-KRAS G12C percent of modification” value in experiment [1] was “B (50≤percent of modification <70%)”. Further, the 50% inhibitory concentration (IC50) in experiment [2] is below 500 nM. The “GDP-KRAS G12C percent of modification” value in experiment [3] is recorded as “A (percent of modification ≥70%)”.

In the case of `C=CC(=O)N1CC[C@@H](N(C)c2nc(OC[C@@H]3CC4(CC4)CN3CC)nc3c(F)c(-c4ccc(F)c5sc(N)c(C#N)c45)c(C(F)(F)F)cc23)[C@@H]1C` [Compound 95], in experiment [1], the “GTP-KRAS G12C percent of modification” value is on record as “B (50≤percent of modification <70%)”. The compound also returned a half-maximal inhibitory concentration (IC50) in experiment [2] below 500 nM. Besides, the “GDP-KRAS G12C percent of modification” value in experiment [3] is “A (percent of modification ≥70%)”.

As for `C=CC(=O)N1CC[C@@H](N(C)c2nc(OC[C@@H]3CC4(CC4)CN3CC)nc3c(F)c(-c4ccc(F)c5sc(N)c(C#N)c45)c(Cl)cc23)[C@H]1C` [Compound 97], the “GTP-KRAS G12C percent of modification” value in experiment [1] is recorded as “A (percent of modification ≥70%)”. Besides, in experiment [2], the IC50 was below 500 nM. In addition, the “GDP-KRAS G12C percent of modification” value in experiment [3] is reported as “A (percent of modification ≥70%)”.

In the case of `C=CC(=O)N1CC[C@@H](N(C)c2nc(OC[C@@H]3C[C@@H](F)CN3CC)nc3c(F)c(-c4ccc(F)c5sc(N)c(C#N)c45)c(Cl)cc23)[C@H]1C` [Compound 98], the “GTP-KRAS G12C percent of modification” value in experiment [1] is listed as “D (percent of modification <10%)”. This compound gave an IC50 in experiment [2] of 500 to 5000 nM. Moreover, the “GDP-KRAS G12C percent of modification” value in experiment [3] is “D (percent of modification <10%)”.

`C=CC(=O)N1CC[C@@H](N(C)c2nc(OC[C@@H]3C[C@@H](OC)CN3CC)nc3c(F)c(-c4ccc(F)c5sc(N)c(C#N)c45)c(Cl)cc23)[C@H]1C` [Compound 99]: the “GTP-KRAS G12C percent of modification” value in experiment [1] is “A (percent of modification ≥70%)”. In experiment [2], this compound gave an IC50 below 500 nM. The “GDP-KRAS G12C percent of modification” value in experiment [3] is listed as “A (percent of modification ≥70%)”.

Consider `C=CC(=O)N1CC[C@@H](N(C)c2nc(OC[C@@H]3C[C@@H](OC)CN3CC)nc3c(F)c(-c4ccc(F)c5sc(N)c(C#N)c45)c(Cl)cc23)[C@@H]1C` [Compound 100], for which, in experiment [1], the “GTP-KRAS G12C percent of modification” value was “C (10%≤percent of modification <50%)”. Moreover, the half-inhibitory concentration (IC50) in experiment [2] is below 500 nM. Also, the “GDP-KRAS G12C percent of modification” value in experiment [3] is recorded as “A (percent of modification ≥70%)”.

The term IC50 denotes the midpoint of a concentration-inhibition curve. Lower therefore signals greater potency.

The values are drawn from patent US20260232666A1, “COMPOSITIONS AND METHODS FOR INHIBITION OF RAS” (TheRas, Inc., priority 2023, published 2026).
